Results: PubChem BioAssay (NCI)
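These data come from cells grown in 96-well plates and exposed to compound for 48 hours at five concentrations. At the GI50, growth is halved. The concentration for full growth arrest is given as TGI.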

Key:
Assay in all cases: NCI-60 cell line screen, 48 h
[1] = tested on: A549 NSCLC
[2] = tested on: PC-3 prostate
[3] = tested on: SK-OV-3 ovarian
[4] = tested on: SK-MEL-28 melanoma
[5] = tested on: OVCAR-8 ovarian
[6] = tested on: HT29 colon
[7] = tested on: ACHN renal
[8] = tested on: RXF 393 renal
[9] = tested on: MCF7 breast
[10] = tested on: SR leukemia

Compound | GI50 [1] | TGI [1] | GI50 [2] | TGI [2] | GI50 [3] | TGI [3] | GI50 [4] | TGI [4] | GI50 [5] | TGI [5] | GI50 [6] | TGI [6] | GI50 [7] | TGI [7] | GI50 [8] | TGI [8] | GI50 [9] | TGI [9] | GI50 [10] | TGI [10]
O=S(=O)(Nc1ccc(Cl)c(Cl)c1)c1ccc(-c2cnc(C3CC3)o2)cc1 | 0.672 µM | 17.2 µM | 0.474 µM | 14.5 µM | 0.713 µM | 39.7 µM | 4.19 µM | 21.5 µM | 1.23 µM | 20.1 µM | 0.403 µM | 16.8 µM | 0.606 µM | 30.7 µM | 0.376 µM | 8.44 µM | 0.289 µM | 18.3 µM | 0.122 µM | 62.6 µM
CS(=O)(=O)CCNCc1ccoc1-c1ccc2ncnc(Nc3ccc(OCc4ccccc4)cc3)c2c1 | > 25 µM | > 25 µM | > 25 µM | > 25 µM | 1.5 µM | > 25 µM | > 25 µM | > 25 µM | > 25 µM | > 25 µM | 9.55 µM | > 25 µM | > 25 µM | > 25 µM | 7.25 µM | > 25 µM | 8.54 µM | > 25 µM | > 16.9 µM | > 25 µM
COc1ccc(F)cc1-c1ccnc2[nH]c(C3=CCN(C4CCC(CC(=O)O)CC4)CC3)cc12 (centres undefined) | 0.424 µM | > 100 µM | 0.313 µM | > 100 µM | 1.2 µM | > 100 µM | 0.152 µM | 0.989 µM | 0.288 µM | > 100 µM | 0.234 µM | 3.93 µM | 0.243 µM | > 100 µM | 0.0413 µM | 0.216 µM | 0.0625 µM | 26.9 µM | 0.0295 µM | > 100 µM
O=C(N/N=C/c1ccc(N(CCCl)CCCl)cc1)c1ccc(C(=O)N/N=C/c2ccc(N(CCCl)CCCl)cc2)cc1 | 3.08 µM | > 100 µM |  |  | 10.5 µM | > 100 µM | > 100 µM | > 100 µM | 12.9 µM | > 100 µM | 0.801 µM | > 100 µM | 6.8 µM | > 100 µM | 7.63 µM | > 100 µM | 0.38 µM | > 100 µM |  | > 100 µM
c1ccc(-c2cc3n4c(-c5ccccc5)nn(-c5ccccc5)c4cnc-3n2)cc1 | > 50 µM | > 50 µM |  |  | 11.8 µM | > 50 µM |  |  | > 50 µM | > 50 µM | > 50 µM | > 50 µM | > 50 µM | > 50 µM | 4.16 µM | 33.8 µM | 4.26 µM | > 50 µM | > 50 µM | > 50 µM
CCSc1nc(N)c2cnn(CC)c2n1 | 3.83 µM | 20.9 µM | 4.34 µM | 14.8 µM | 23.9 µM | > 100 µM | 20.4 µM | > 100 µM | 3.21 µM | 19.4 µM |  |  |  |  | 2.98 µM | 7.14 µM | 16.6 µM | 79 µM | 2.27 µM | 48.9 µM
O=[N+]([O-])c1ccc2nc(-c3ccc(Cl)cc3)[nH]c2c1 |  | 70.5 µM |  | 63.6 µM |  | 60.4 µM |  | > 100 µM |  | > 100 µM |  | 32.8 µM |  | 67.9 µM |  |  |  | 62.8 µM |  | 79.9 µM
CCC(C)N1CN(c2ccccc2)C2(CCN(CCCC3(c4ccc(F)cc4)OCCO3)CC2)C1=O (centres undefined) |  | 23.2 µM |  | 11.4 µM |  | 56 µM |  | 34.4 µM |  | 20.6 µM |  | > 37.5 µM |  | 14.9 µM |  | 26.5 µM |  | 7.58 µM |  | 23.5 µM
CC(=O)OC1=C(CC(C)(C)C)C(=O)c2ccccc2C1=O |  |  |  | > 100 µM |  | 66.2 µM |  | > 100 µM |  | > 100 µM |  | > 100 µM |  | > 100 µM |  | 82.7 µM |  | > 100 µM |  | 50.7 µM
Cc1cc2nc(-c3ccc(O)c(O)c3)n(Cc3ccc(O)c(O)c3)c2cc1C | 40.2 µM | > 100 µM | 22.5 µM | > 100 µM | > 100 µM | > 100 µM | 87.6 µM | > 100 µM | 26.4 µM | > 100 µM | 45.1 µM | > 100 µM | 15.3 µM | 59.6 µM | 21.2 µM | > 100 µM | 24.4 µM | 80.7 µM | 4.18 µM | 19.5 µM
CN(C)C(=S)/N=c1\ss/c(=N\S(=O)(=O)c2ccccc2)n1C |  | > 100 µM |  |  |  | > 100 µM |  | > 100 µM |  | > 100 µM |  | > 100 µM |  | > 100 µM |  | > 100 µM |  |  |  | > 100 µM
CCOC(=O)CN1C(=O)C(=O)N(c2ccc(OC)c3ccccc23)C1=O |  | > 100 µM |  | > 100 µM |  | > 100 µM |  | > 100 µM |  | > 100 µM |  | > 100 µM |  | > 100 µM |  | > 100 µM |  | > 100 µM |  | > 100 µM
N=C1C=C(N)C(=O)c2ccccc21 | 1.04 µM | 2.7 µM | 0.281 µM | 1.34 µM | 1.51 µM | 2.86 µM | 0.496 µM | 1.64 µM | 0.248 µM | 0.661 µM | 0.386 µM | 1.82 µM | 0.182 µM | 0.369 µM | 0.182 µM | 0.337 µM | 0.188 µM | 0.391 µM | 0.256 µM | 0.667 µM
CN1CCN(c2nc3cc(F)ccc3n3cccc23)CC1 |  | > 100 µM |  | > 100 µM |  | > 100 µM |  | 51.8 µM |  | > 100 µM |  | 87.6 µM |  | > 100 µM |  | > 100 µM |  | > 100 µM |  | > 100 µM
CC(=O)/C(=C/N1CCN(C(=O)c2ccco2)C1=S)C(=O)c1ccccc1 | 10.8 µM | 26.9 µM | 17.1 µM | > 50 µM | 17.5 µM | > 50 µM | 28 µM | > 50 µM | 8.75 µM | 24.3 µM | 16.9 µM | > 50 µM | 6.9 µM | 17.6 µM |  |  | 1.25 µM | 4.2 µM | 2.71 µM | 13.4 µM
COc1ccc2c(c1)C=CC1C2CC[C@]2(C)C(NC(=O)/C=C/c3ccc(O)c(O)c3)CCC12 (some centres undefined) | 11.4 µM | 29.5 µM | 4.64 µM | 18 µM |  |  | 16.2 µM | 32 µM | 14.2 µM | > 100 µM |  |  | 7.5 µM | 19.8 µM | 17.6 µM | 45.8 µM | 6.28 µM | 20.8 µM | 4.06 µM | 17.1 µM
